Measurements as given in US8729020B2, “Methods for the treatment of aortic fibrosis with VIP fragments” (Vectus Biosystems Pty Ltd, priority 2009, dated 2014).

System: Male SHR rats on 2.2% salt diet
Experiment: Effect of VIP/VIP fragment infusion on aortic fibrosis in rat model of fibrosis
Format: in vivo
Details: 4 weeks intravenous infusion at 5 pmol/kg/min by osmotic minipump, vs vehicle control, fibrosis quantified as percent surface area
Source text: Two animal models of aortic fibrosis were used (animals obtained from Australian Animal Resources, Perth, Western Australia, Australia)
i) Male SHR rats on 2.2% salt diet
In each model the rats were randomised to VIP (1-28), VIP (4-12), VIP (4-16), VIP (4-10), VIP (4-20), VIP (4-24), VIP (10-28), VIP (16-20), VIP (16-24), VIP (16-28), VIP (6-10), VIP (6-12), VIP (6-16), VIP (6-20), VIP (6-24), and VIP (6-28). All peptides were obtained from or synthesised by Auspep, Australia. VIP fragments were dissolved in Hartman's solution for subsequent infusion studies. Commencing at 12 weeks of age, the rats were acclimatized to tail cuff blood pressure measurements and handling for 2 weeks. They then underwent operative insertion of an osmotic minipump (Alzet) which was designed to deliver vehicle alone (Hartman's solution, (Baxter Health Care Corporation)-(Controls)) or VIP, VIP fragment at a dose of 5 pmol/kg/min intravenously.
The infusion was continued for 4 weeks, during which the rats were weighed and their blood pressures measured twice weekly. […]
For quantitation of aortic fibrosis, twenty fields from each aorta were digitized and the amount of fibrosis in each determined as percent surface area using Image-Pro Plus V5.0 software. The mean value for each rat and subsequently for each infusion group was then determined.

“His-Ser-Asp-Ala-Val-Phe-Thr-Asp-Asn-Tyr-Thr-Arg-Leu-Arg-Lys-Gln-Met-Ala-Val-Lys-Lys-Tyr-Leu-Asn-Ser-Ile-Leu-Asn (HSDAVFTDNYTRLRKQMAVKKYLNSILN; listed as Homo sapiens) [VIP]” was tested, and the “aortic fibrosis (fibrosis within the aortic wall)” value was “reductions in aortic fibrosis”.
